Data reported in PMC5148754, “Response surface methodology-based optimization of production media and purification of α-galactosidase in solid-state fermentation by Fusarium moniliforme NCIM 1099” (3 Biotech, 2016).

Key:
[1] = tested on: T1, α-galactosidase; assay: initial rate of hydrolysis, Lineweaver-Burk; type: biochemical, Fusarium verticillioides; conditions: citrate phosphate buffer pH 5.0, 50 °C (standard assay); read-out: apparent Km
T1 construct: gene EC 3.2.1.22; single band 57 kDa on SDS-PAGE; optimum pH 4.0

[2] = tested on: T1, α-galactosidase; assay: initial rate of hydrolysis, p-nitrophenol release at […] nm, Lineweaver-Burk; type: biochemical, Fusarium verticillioides; conditions: citrate phosphate buffer pH 5.0, 50 °C (standard assay); read-out: apparent Km

SMILES	Km [1] [µM]	Km [2] [µM]
OC[C@H]1O[C@H](OC[C@H]2OC(O)[C@H](O)[C@@H](O)[C@@H]2O)[C@H](O)[C@@H](O)[C@H]1O (stereo partly drawn) [melibiose]	1360	
O=[N+]([O-])c1ccc(O[C@H]2O[C@H](CO)[C@H](O)[C@H](O)[C@H]2O)cc1 [p-nitrophenyl-α-D-galactopyranoside]		200
OC[C@H]1O[C@H](OC[C@H]2O[C@H](O[C@]3(CO)O[C@H](CO)[C@@H](O)[C@@H]3O)[C@H](O)[C@@H](O)[C@@H]2O)[C@H](O)[C@@H](O)[C@H]1O [raffinose]	3660	
